Patent US20020098520A1, “Cell tests and diagnostic index for alzheimer's disease” (priority 1993, published 2002)

Tests used:
[1] = test system: 113 pS K^+ channel; experiment: Patch-clamp, cell-free patches: channel sensitivity to blockers; assay type: cell-based, human; conditions: 50 mM Ba^2+, inside-out patches, n=4
Protocol: (§1) Patch-clamp experiments were performed at room temperature (21-23° C.), following standard procedures set forth in Sakmann, B. and Neher, E. (1983) Single Channels Recordings (Plenum New York) and Kukuljan, M., et al. (1991) J. Membrane Biol. 119:187. Before recordings, […] culture medium was replaced with the following solution: 150 mM NaCl, 5 mM KCl, 2 mM CaCl2, 1 MM MgCl2, 10 mM HEPES […] pH=7.4. Pipettes were made from Blue Tip capillary tubes (I.D. 1.1-1.2 mm) using a BB-CH Mecanex puller, and then filled with a high potassium solution of 140 mM KCl, 2 mM CaCl2, 1 mM MgCl2, 10 mM HEPES (NaOH), pH=7.4. Pipette resistances were approximately 6 MΩ. Records were obtained using an Axopatch-1C amplifier (dc-10 kHz), stored on tape (Toshiba PCM-video recorder), and later transferred to a personal computer using an Axolab interface. Only recordings lasting for at least 3 minutes were considered for final analysis. The pClamp suite of programs was used for single-channel data acquisition and analysis. Amplifier, interface and software were obtained from Axon Instruments (Foster City, Calif.).

[2] = test system: 166 pS K^+ channel; experiment: as above; assay type: cell-based, human; conditions: 50 mM Ba^2+, inside-out patches, n=4
Protocol: as §1

[3] = test system: human skin fibroblasts (AD, AC, YC); assay type: cell-based

Row | Compound | response to high potassium when agent is added before stimulation [3] | further results
1 | [Ba+2] [Ba^2+] | – | sensitivity of the 113 pS channel to Ba^2+ [1]: sensitive; sensitivity of the 166 pS channel to Ba^2+ [2]: sensitive
2 | O=C(O)CN(CCOCCOCCN(CC(=O)O)CC(=O)O)CC(=O)O [EGTA] | No responses were observed | –
3 | [Cl][Cd][Cl] [CdCl2] | No responses were observed | –
4 | [Cl][Ni][Cl] [NiCl2] | No responses were observed | –
5 | [Cl-].[Cl-].[Co+2] [CoCl2] | No responses were observed | –
6 | [Cl-].[K+] [KCl, potassium chloride] | – | return of [Ca^2+]i to basal levels ([3]; 50 mM KCl): 100 s; [Ca^2+]i elevation ([3]; 50 mM KCl, all three groups (AD, AC, YC)): at least 100%
7 | [Cl][La]([Cl])[Cl] [LaCl3] | No responses were observed | –
